Measurements published in US20240408222A1, “COMPOUNDS, PHARMACEUTICAL COMPOSITIONS, AND METHODS FOR THE TREATMENT, PREVENTION, OR MANAGEMENT OF HYPERPRO[…]” (VINCERX PHARMA GMBH, priority 2021, published 2024).

What was measured:
Test in all cases: Cytotoxicity assay (Version 2, automated, AC50) with/without neutrophil elastase
Settings in all cases: Version 2, activity concentration at −50%
NCI H292 = type: cell-based, human
Experimental: (§1) Cultivation of cells was performed according to standard procedures with the media recommended by the provider. The cells, in a total volume of 100 μL, were seeded in a 96-well plate with a white bottom (#3610). After a 24 h incubation period at 37° C. and […], the medium was exchanged by adding 90 μL fresh medium. The treatment started by adding the test compound in 10 μL of culture medium to the cells in triplicates. Concentrations ranging from 10^−5 M to 10^−13 M were chosen. Two identically treated sets of samples were prepared. One set was treated with the test compound alone, whereas to the second set the compound and 10 nM elastase was added followed by a 72 h incubation period at 37° C. and […]. The proliferation was detected using the MTT assay (ATCC). At the end of the incubation period the MTT reagent was added to all samples for 4 h. Lysis of the cells followed by addition of the detergent was done overnight. The formed dye was detected at 570 nm. The proliferation of untreated but otherwise identically handled cells was define as the 100% value.
(§2) The cytotoxicity assay (Version 2) was performed as described above. Some changes were applied as the assays were performed in an automated fashion and the IC50 values determination was changed. Here the change in metabolic activity of the cells, in percent, was calculated by normalization of the measured values to the absorbance values of medium containing wells without cells (═−100%) and the absorbance of the DMSO-treated cells (═0%). AC50 values (activity concentration at −50%) were determined by means of a 4 parameter Hill-fit using GeneData Screener software.

786-O = type: cell-based, human
Experimental: as §1, §2

HT29 = type: cell-based, human
Experimental: as §1, §2

SUM149 = type: cell-based
Experimental: as §1, §2

[1] = NCI H292, with (+) neutrophil elastase
[2] = NCI H292, without (−) neutrophil elastase
[3] = without (−) neutrophil elastase
[4] = HT29, with (+) neutrophil elastase
[5] = HT29, without (−) neutrophil elastase
[6] = SUM149, with (+) neutrophil elastase
[7] = SUM149, without (−) neutrophil elastase

Row | SMILES | AC50 (NCI H292; [1]) | AC50 (NCI H292; [2]) | AC50 (786-O; with (+) neutrophil elastase) | AC50 (786-O; [3]) | AC50 (HT29; [4]) | AC50 (HT29; [5]) | AC50 (SUM149; [6]) | AC50 (SUM149; [7])
1 | CCCNC(=O)Nc1cccc(S(=O)(=O)Nc2cccc([C@@H](CC(=O)O)NC(=O)Nc3ccc(NC(=O)NCCN(C)CCN(C)CCN(C)CC(=O)N[C@@H](CC(N)=O)C(=O)N4CCC[C@H]4C(=O)N[C@H](C(=O)N=S(C)(=O)Cc4cc5nc(c4)OCCCOc4cc(F)ccc4-c4cc(ncc4F)N5)C(C)C)cc3)c2)c1 (mixture of isomers) [Compound 22] | ≤ 10 nM | 100 to 1000 nM | ≤ 10 nM | 100 to 1000 nM | ≤ 10 nM | 100 to 1000 nM | ≤ 10 nM | 100 to 1000 nM
2 | CCCNC(=O)Nc1cccc(S(=O)(=O)Nc2cccc([C@H](CC(=O)O)NC(=O)Nc3ccc(NC(=O)NCCN(C)CCN(C)CCN(C)CC(=O)N[C@@H](CC(N)=O)C(=O)N4CCC[C@H]4C(=O)N[C@H](C(=O)N=S(C)(=O)Cc4cc5nc(c4)OCCCOc4cc(F)ccc4-c4cc(ncc4F)N5)C(C)C)cc3)c2)c1 (mixture of isomers) [Compound 23] | ≤ 10 nM | 100 to 1000 nM | ≤ 10 nM | 100 to 1000 nM | ≤ 10 nM | 100 to 1000 nM | ≤ 10 nM | 100 to 1000 nM
3 | CCCNC(=O)Nc1cccc(S(=O)(=O)Nc2cccc([C@@H](CC(=O)O)NC(=O)Nc3ccc(NC(=O)NCCOCCOCCOCCC(=O)N[C@@H](CC(=O)O)C(=O)N4CCC[C@H]4C(=O)N[C@H](C(=O)N=[S@@](C)(=O)Cc4cc5nc(c4)OCCCOc4cc(F)ccc4-c4cc(ncc4F)N5)C(C)C)cc3)c2)c1 (racemic) [Compound 37, N-(14-{4-[({(1R)-2-carboxy-1-[3-({3-[(propylcarbamoyl)amino]benzene-1-sulfonyl}amino)phenyl]ethyl}carbamoyl)amino]anilino}-14-oxo-4,7,10-trioxa-13-azatetradecanan-1-oyl)-L-alpha-aspartyl-L-prolyl-N—[(RS)—{[15,19-difluoro-3,4-dihydro-2H,11H-10,6-(azeno)-12,16-(metheno)-1,5,11,13-benzodioxadiazacyclooctadecin-8-yl]methyl}(methyl)oxo-lambda^6-sulfanylidene]-L-valinamide] | ≤ 10 nM | 100 to 1000 nM | ≤ 10 nM | 100 to 1000 nM | ≤ 10 nM | 100 to 1000 nM | ≤ 10 nM | 100 to 1000 nM
4 | CCCNC(=O)Nc1cccc(S(=O)(=O)Nc2cccc([C@@H](CC(=O)O)NC(=O)Nc3ccc(NC(=O)NCCOCCOCCOCCC(=O)NCCCC[C@H](NC(=O)CCOCCOCCOCCNC(=O)Nc4ccc(NC(=O)N[C@H](CC(=O)O)c5cccc(NS(=O)(=O)c6cccc(NC(=O)NCCC)c6)c5)cc4)C(=O)NCCN(C)CCN(C)CCN(C)CC(=O)N[C@@H](CC(N)=O)C(=O)N4CCC[C@H]4C(=O)N[C@H](C(=O)N=[S@@](C)(=O)Cc4cc5cc(c4)O[C@@H](C)CCOc4cc(F)ccc4-c4nc(ncc4F)N5)C(C)C)cc3)c2)c1 (relative stereo) [Compound 28] | ≤ 10 nM | 100 to 1000 nM | ≤ 10 nM | > 1000 nM | ≤ 10 nM | 100 to 1000 nM | ≤ 10 nM | 100 to 1000 nM
5 | CCCNC(=O)Nc1cccc(S(=O)(=O)Nc2cccc([C@H](CC(=O)O)NC(=O)Nc3ccc(NC(=O)NCCOCCOCCOCCC(=O)NCCCC[C@H](NC(=O)CCOCCOCCOCCNC(=O)Nc4ccc(NC(=O)N[C@@H](CC(=O)O)c5cccc(NS(=O)(=O)c6cccc(NC(=O)NCCC)c6)c5)cc4)C(=O)NCCN(C)CCN(C)CCN(C)CC(=O)N[C@@H](CC(N)=O)C(=O)N4CCC[C@H]4C(=O)N[C@H](C(=O)N=[S@@](C)(=O)Cc4cc5cc(c4)O[C@@H](C)CCOc4cc(F)ccc4-c4nc(ncc4F)N5)C(C)C)cc3)c2)c1 (relative stereo) [Compound 29] | ≤ 10 nM | 100 to 1000 nM | ≤ 10 nM | > 1000 nM | ≤ 10 nM | 100 to 1000 nM | ≤ 10 nM | 100 to 1000 nM
6 | CCCNC(=O)Nc1cccc(S(=O)(=O)Nc2cccc([C@@H](CC(=O)O)NC(=O)Nc3ccc(NC(=O)NCCOCCOCCOCCC(=O)NCCCC[C@H](NC(=O)CCOCCOCCOCCNC(=O)Nc4ccc(NC(=O)N[C@H](CC(=O)O)c5cccc(NS(=O)(=O)c6cccc(NC(=O)NCCC)c6)c5)cc4)C(=O)NCCOCCOCCOCCC(=O)N[C@@H](CC(=O)O)C(=O)N4CCC[C@H]4C(=O)N[C@H](C(=O)N=[S@](C)(=O)Cc4cc5cc(c4)O[C@H](C)CCOc4cc(F)ccc4-c4nc(ncc4F)N5)C(C)C)cc3)c2)c1 (relative stereo) [Compound 31] | ≤ 10 nM | 100 to 1000 nM | ≤ 10 nM | > 1000 nM | ≤ 10 nM | > 1000 nM | ≤ 10 nM | 100 to 1000 nM
7 | CCCNC(=O)Nc1cccc(S(=O)(=O)Nc2cccc([C@H](CC(=O)O)NC(=O)Nc3ccc(NC(=O)NCCOCCOCCOCCC(=O)N[C@@H](CCCCNC(=O)CCOCCOCCOCCNC(=O)Nc4ccc(NC(=O)N[C@H](CC(=O)O)c5cccc(NS(=O)(=O)c6cccc(NC(=O)NCCC)c6)c5)cc4)C(=O)NCCOCCOCCOCCC(=O)N[C@@H](CC(=O)O)C(=O)N4CCC[C@H]4C(=O)N[C@H](C(=O)N=S(C)(=O)Cc4cc5nc(c4)OCCCOc4cc(F)ccc4-c4cc(ncc4F)N5)C(C)C)cc3)c2)c1 (relative stereo) [Compound 32] | ≤ 10 nM | 100 to 1000 nM | ≤ 10 nM | 100 to 1000 nM | ≤ 10 nM | > 1000 nM | ≤ 10 nM | 100 to 1000 nM
8 | CCCNC(=O)Nc1cccc(S(=O)(=O)Nc2cccc([C@@H](CC(=O)O)NC(=O)Nc3ccc(NC(=O)NCCOCCOCCOCCC(=O)N[C@@H](CC(=O)O)C(=O)N4CCC[C@H]4C(=O)N[C@H](C(=O)N=S(C)(=O)Cc4cc5cc(c4)OCCCCOc4cc(F)ccc4-c4nc(ncc4F)N5)C(C)C)cc3)c2)c1 (relative stereo) [Compound 36] | 11 to 100 nM | 100 to 1000 nM | 11 to 100 nM | 100 to 1000 nM | 11 to 100 nM | 100 to 1000 nM | 11 to 100 nM | 100 to 1000 nM
9 | CCCNC(=O)Nc1cccc(S(=O)(=O)Nc2cccc([C@@H](CC(=O)O)NC(=O)Nc3ccc(NC(=O)NCCOCCOCCOCCC(=O)N[C@@H](CC(=O)O)C(=O)N4CCC[C@H]4C(=O)N[C@@H](C(=O)N=[S@@](C)(=O)Cc4cc5cc(c4)O[C@@H](C)CCOc4cc(F)ccc4-c4nc(ncc4F)N5)C(C)C)cc3)c2)c1 (relative stereo) [Compound 39, N-(14-{4-[({(1R)-2-carboxy-1-[3-({3-[(propylcarbamoyl)amino]benzene-1-sulfonyl}amino)phenyl]ethyl}carbamoyl)amino]anilino}-14-oxo-4,7,10-trioxa-13-azatetradecanan-1-oyl)-L-alpha-aspartyl-L-prolyl-N—[(R*)—{[(4R*)-15,19-difluoro-4-methyl-3,4-dihydro-2H,11H-12,16-(azeno)-10,6-(metheno)-1,5,11,13-benzodioxadiazacyclooctadecin-8-yl]methyl}(methyl)oxo-lambda^6-sulfanylidene]-D-valinamide] | ≤ 10 nM | 100 to 1000 nM | ≤ 10 nM | 100 to 1000 nM | ≤ 10 nM | 100 to 1000 nM | ≤ 10 nM | 100 to 1000 nM
10 | CCCNC(=O)Nc1cccc(S(=O)(=O)Nc2cccc([C@@H](CC(=O)O)NC(=O)Nc3ccc(NC(=O)NCCOCCOCCOCCC(=O)N[C@@H](CC(=O)O)C(=O)N4CCC[C@H]4C(=O)N[C@H](C(=O)N=[S@](C)(=O)Cc4cc5nc(c4)O[C@@H](C)CCCCOc4cc(F)ccc4-c4cc(ncc4F)N5)C(C)C)cc3)c2)c1 (relative stereo) [Compound 55] | 11 to 100 nM | > 1000 nM | 11 to 100 nM | > 1000 nM | 11 to 100 nM | > 1000 nM | ≤ 10 nM | > 1000 nM
11 | CCCNC(=O)Nc1cccc(S(=O)(=O)Nc2cccc([C@@H](CC(=O)O)NC(=O)Nc3ccc(NC(=O)NCCOCCOCCOCCC(=O)N[C@@H](CC(=O)O)C(=O)N4CCC[C@H]4C(=O)N[C@H](C(=O)N=[S@](C)(=O)Cc4cc5nc(c4)O[C@H](C)CCCCOc4cc(F)ccc4-c4cc(ncc4F)N5)C(C)C)cc3)c2)c1 (relative stereo) [Compound 56] | 11 to 100 nM | > 1000 nM | 11 to 100 nM | > 1000 nM | 11 to 100 nM | > 1000 nM | 11 to 100 nM | 100 to 1000 nM
